Laboratory results published in the CheMixHub viscosity set.
Values joined by “and” are separate entries in the source; they are usually repeats but may differ in a detail not shown here. Equal entries are not always repeated. ± gives the uncertainty stated by the source. Each block holds one molecule with its values, some of them ahead of it.

SMILES: CCCCCl
viscosity (298.15 K, 101 kPa): 0.428 mPa·s | viscosity (318.15 K, 101 kPa): 0.356 mPa·s | viscosity (323.15 K, 101 kPa): 0.34 mPa·s

SMILES: CCCC[N+]1(C)CCCC1.N#C[S-]
viscosity (298.15 K, 101 kPa): 109.5 ± 23 mPa·s | viscosity (308.15 K, 101 kPa): 70.36 ± 6.5 mPa·s | viscosity (318.15 K, 101 kPa): 47.79 ± 3 mPa·s

SMILES: CCNC(C)=O
viscosity (298.16 K, 101 kPa): 5.89 ± 0.05 mPa·s

SMILES: CCOC(=O)c1ccccc1
viscosity (293.15 K, 101.33 kPa): 2.013 ± 0.052 mPa·s and 2.21 ± 0.02 mPa·s | viscosity (298.15 K, 101.33 kPa): 1.954 ± 0.025 mPa·s and 1.936 ± 0.023 mPa·s | viscosity (303.15 K, 101.33 kPa): 1.597 ± 0.041 mPa·s and 1.77 ± 0.022 mPa·s and 1.811 ± 0.016 mPa·s | viscosity (308 K, 101.3 kPa): 1.593 ± 0.16 mPa·s | viscosity (308.15 K, 101.33 kPa): 1.61 ± 0.021 mPa·s and 1.591 ± 0.019 mPa·s | viscosity (313 K, 101.3 kPa): 1.446 ± 0.14 mPa·s | viscosity (313.15 K, 101 kPa): 1.446 ± 0.035 mPa·s and 1.463 ± 0.031 mPa·s and 1.461 ± 0.022 mPa·s | viscosity (313.15 K, 101.33 kPa): 1.284 ± 0.033 mPa·s and 1.453 ± 0.018 mPa·s | viscosity (318 K, 101.3 kPa): 1.339 ± 0.13 mPa·s | viscosity (318.15 K, 101 kPa): 1.339 ± 0.033 mPa·s and 1.35 ± 0.042 mPa·s | viscosity (318.15 K, 101.33 kPa): 1.332 ± 0.016 mPa·s | viscosity (323 K, 101.3 kPa): 1.254 ± 0.13 mPa·s | viscosity (323.15 K, 101 kPa): 1.254 ± 0.031 mPa·s | viscosity (323.15 K, 101.33 kPa): 1.058 ± 0.027 mPa·s

SMILES: CCS(=O)CC
viscosity (298.15 K, 101 kPa): 2.32 ± 0.05 mPa·s | viscosity (303.15 K, 101 kPa): 2.1 ± 0.04 mPa·s | viscosity (308.15 K, 101 kPa): 1.88 ± 0.04 mPa·s | viscosity (313.15 K, 101 kPa): 1.74 ± 0.04 mPa·s | viscosity (318.15 K, 101 kPa): 1.59 ± 0.03 mPa·s | viscosity (323.15 K, 101 kPa): 1.31 ± 0.03 mPa·s

SMILES: CNS(C)(=O)=O
viscosity (303.15 K, 101.33 kPa): 8.242 ± 0.21 mPa·s

SMILES: Cc1cccc([N+](=O)[O-])c1
viscosity (308.15 K, 101.33 kPa): 1.692 ± 0.01 mPa·s

SMILES: Cc1ccccc1[N+](=O)[O-]
viscosity (298.15 K, 101 kPa): 2.1 ± 0.021 mPa·s | viscosity (298.15 K, 101.33 kPa): 2.089 ± 0.021 mPa·s | viscosity (308.15 K, 101.33 kPa): 1.727 ± 0.011 mPa·s | viscosity (323.15 K, 101.33 kPa): 1.348 ± 0.013 mPa·s

SMILES: N#CCc1ccccc1
viscosity (298.15 K, 101 kPa): 1.868 ± 0.045 mPa·s

SMILES: c1cscn1
viscosity (298.15 K, 101 kPa): 1.008 ± 0.027 mPa·s

Further lines, with some results ahead:

viscosity (298.15 K, 100 kPa): 57.4 ± 1.8 mPa·s and 62.81 ± 3.2 mPa·s | viscosity (308.15 K, 100 kPa): 37.36 ± 2 mPa·s and 40.56 ± 2.1 mPa·s | viscosity (318.15 K, 100 kPa): 25.8 ± 1.4 mPa·s
SMILES: CCCC[n+]1ccn(C)c1.N#C[S-]

viscosity (298.15 K, 101.33 kPa): 0.503 ± 0.005 mPa·s | viscosity (308.15 K, 101.33 kPa): 0.444 ± 0.005 mPa·s | viscosity (318.15 K, 101.33 kPa): 0.386 ± 0.004 mPa·s
SMILES: CCCNCCC
viscosity (298.15 K, 100 kPa): 0.504 ± 0.1 mPa·s and 0.5042 ± 0.15 mPa·s (2×) | viscosity (303.15 K, 100 kPa): 0.471 ± 0.1 mPa·s and 0.4706 ± 0.15 mPa·s (2×) | viscosity (308.15 K, 100 kPa): 0.444 ± 0.1 mPa·s and 0.4444 ± 0.15 mPa·s (2×)

viscosity (293.15 K, 101 kPa): 221.3 ± 4.6 mPa·s | viscosity (298.15 K, 101 kPa): 137.7 ± 2 mPa·s and 137.7 ± 2.1 mPa·s | viscosity (303.15 K, 101 kPa): 90.07 ± 0.93 mPa·s and 90.07 ± 1 mPa·s | viscosity (313.15 K, 101 kPa): 43.68 ± 0.34 mPa·s and 43.68 ± 0.4 mPa·s | viscosity (318.15 K, 101 kPa): 32.1 ± 0.25 mPa·s and 32.1 ± 0.29 mPa·s
SMILES: CCOC(=O)[C@@H](O)[C@H](O)C(=O)OCC
viscosity (308.15 K, 101 kPa): 61.58 ± 0.47 mPa·s and 61.58 ± 0.56 mPa·s | viscosity (323.15 K, 101 kPa): 24.37 ± 0.19 mPa·s and 24.37 ± 0.22 mPa·s

viscosity (293.15 K, 101 kPa): 26.31 ± 0.54 mPa·s | viscosity (298.15 K, 100 kPa): 23.06 ± 1.1 mPa·s | viscosity (303.15 K, 100 kPa): 19.68 ± 0.93 mPa·s | viscosity (303.15 K, 101 kPa): 19.03 ± 0.49 mPa·s | viscosity (308.15 K, 100 kPa): 16.97 ± 0.8 mPa·s | viscosity (313.15 K, 101 kPa): 14.3 ± 0.46 mPa·s | viscosity (323.15 K, 100 kPa): 11.49 ± 0.54 mPa·s | viscosity (323.15 K, 101 kPa): 11.1 ± 0.45 mPa·s
SMILES: CCn1cc[n+](C)c1.N#C[S-]
viscosity (313.15 K, 100 kPa): 14.54 ± 0.69 mPa·s (2×) and 16.97 ± 0.8 mPa·s | viscosity (318.15 K, 100 kPa): 12.98 ± 0.61 mPa·s (2×) and 14.54 ± 0.69 mPa·s

viscosity (303.15 K, 101 kPa): 2.44 ± 0.028 mPa·s
SMILES: COC(=O)c1ccccc1O

viscosity (293.15 K, 100 kPa): 210 ± 10 mPa·s | viscosity (298.15 K, 100 kPa): 143 ± 5.6 mPa·s | viscosity (303.15 K, 100 kPa): 102.5 ± 3.8 mPa·s | viscosity (308.15 K, 100 kPa): 72 ± 3.2 mPa·s | viscosity (313.15 K, 100 kPa): 55 ± 3.1 mPa·s | viscosity (318.15 K, 100 kPa): 40 ± 3.1 mPa·s
SMILES: OC1CCCCCCC1

viscosity (298.15 K, 100 kPa): 4.861 ± 0.1 mPa·s | viscosity (323.15 K, 100 kPa): 2.156 ± 0.046 mPa·s
SMILES: OCC(F)(F)C(F)F
